The values below come from patent publication US9422312B2, “Azabenzimidazole derivatives” (Boehringer Ingelheim International GmbH, priority 2014, dated 2016).

This test deals with Activated AMPK complex 1 (containing alpha1beta1gamma1) (Homo sapiens (Human), UniProt Q13131+Q9Y478). Kind of test: in vitro AMPK activation assay (ADP-Glo Kinase Assay). It counts as biochemical. The conditions noted are these: 1 μM peptide substrate, 30 μM ATP, 60 min, room temperature, luminescence. The text has this: Activated AMPK complex 1 (containing alpha1beta1gamma1) was obtained from baculovirus expression system. The gene encoding AMPK alpha1 was cloned into the pACG2T vector (BD Biosciences) to obtain a N-terminal Glutathion S transferase (GST)-fusion protein. The genes encoding AMPK beta 1 and gamma1 were cloned into the p2Bac dual multiple cloning site vector (Invitrogen) with beta1 under the control of the p10 promoter and gamma1 under the control of the PH promoter. The transfer vectors containing AMPK were co-transfected individually with AcPNV BacMagic-3 DNA (EMD Millipore) in Sf9 cells and the recombinant baculoviruses were harvested after 5 days, followed by 3 rounds of amplification of the virus stock in Sf9 cells. AMPK (alpha1beta1gamma1) was expressed in High Five 5 cells by co-infection of recombinant alpha1 virus and recombinant beta1/gamma1 virus for 72 h at 27° C. Cells were harvested by centrifugation and lysed by 3 freeze/thaw cycles in PBS with 10% glycerol and protease inhibitor cocktail (Roche). After centrifugation AMPK a1b1g1 in the supernatant was captured by immobilized glutathione (GE Healthcare), impurities were washed away with PBS and AMPK alpha1beta1gamma1 was eluted with PBS containing 20 mM reduced gluthathione. The protein buffer was then exchanged to PBS with 10% glycerol and protein concentration was determined by UV absorbance.
Chain of Activated AMPK complex 1 (containing alpha1beta1gamma1) (Q13131 whole entry, the tested form may be a part): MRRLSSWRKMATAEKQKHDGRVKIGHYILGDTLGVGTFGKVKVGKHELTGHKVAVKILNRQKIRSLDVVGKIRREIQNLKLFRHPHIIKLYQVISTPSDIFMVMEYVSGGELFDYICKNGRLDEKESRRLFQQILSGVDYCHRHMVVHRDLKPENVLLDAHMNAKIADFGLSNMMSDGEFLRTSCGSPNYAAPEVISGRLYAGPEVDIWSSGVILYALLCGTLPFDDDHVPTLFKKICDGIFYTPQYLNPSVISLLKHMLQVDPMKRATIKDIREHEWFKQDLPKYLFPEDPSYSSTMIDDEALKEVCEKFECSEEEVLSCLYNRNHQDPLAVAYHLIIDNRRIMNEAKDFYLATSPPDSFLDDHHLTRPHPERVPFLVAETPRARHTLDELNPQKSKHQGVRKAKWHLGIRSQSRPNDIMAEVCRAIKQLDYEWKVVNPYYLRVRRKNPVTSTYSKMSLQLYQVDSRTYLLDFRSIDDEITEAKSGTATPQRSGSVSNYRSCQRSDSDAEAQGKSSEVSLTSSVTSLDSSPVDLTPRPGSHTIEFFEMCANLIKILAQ
Chain of Activated AMPK complex 1 (containing alpha1beta1gamma1) (Q9Y478 whole entry, the tested form may be a part): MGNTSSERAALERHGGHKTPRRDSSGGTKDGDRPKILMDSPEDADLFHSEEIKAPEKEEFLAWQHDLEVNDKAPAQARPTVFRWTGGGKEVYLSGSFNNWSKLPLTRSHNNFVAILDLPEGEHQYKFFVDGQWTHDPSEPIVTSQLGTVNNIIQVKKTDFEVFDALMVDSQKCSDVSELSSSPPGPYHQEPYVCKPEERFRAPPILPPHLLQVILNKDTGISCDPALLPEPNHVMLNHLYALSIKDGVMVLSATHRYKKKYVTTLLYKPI
Chain of Activated AMPK complex 1 (containing alpha1beta1gamma1) (P54619 whole entry partner, the tested form may be a part): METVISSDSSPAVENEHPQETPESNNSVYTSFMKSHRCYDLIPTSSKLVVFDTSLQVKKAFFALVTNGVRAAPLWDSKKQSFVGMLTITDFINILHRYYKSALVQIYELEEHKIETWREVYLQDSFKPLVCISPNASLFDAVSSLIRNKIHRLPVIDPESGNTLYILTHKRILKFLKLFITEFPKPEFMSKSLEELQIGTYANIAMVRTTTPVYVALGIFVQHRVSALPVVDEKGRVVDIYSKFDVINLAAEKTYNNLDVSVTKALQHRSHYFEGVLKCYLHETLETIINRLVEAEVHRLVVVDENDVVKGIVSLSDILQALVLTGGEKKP
The white 384-well Optiplates (cat. no. 6007299) were purchased from PerkinElmer. The V9101 ADP-Glo Kinase Assay and ultra pure ATP (V915A) was purchased from Promega. The substrate for AMPK (NH2-HMRSAMSGLHLVKRR_CONH2) was purchased from Upstate (12-355).
Compounds were tested in either serial dilutions or single dose concentrations. The serial compound dilutions were prepared in 100% DMSO automatically. The final DMSO concentration in the assay was 0.1%.
The Compound Stock Solutions were 10 mM in 100% DMSO. The compounds were solubilised at room temperature.
In the 384-well plates 1.25 ul of test compound in assay buffer was mixed with 1.25 ul of AMPK and 1.25 μl of the peptide (final concentration of 1 μM) and 1.25 μl of ATP (final concentration of 30 μM), both dissolved in assay buffer. This step was followed by an incubation time of 60 min. Then 5 μl of ADP Glo Reagent was added. This was followed by 40 min of incubation. Then 10 μl of Kinase Detection Reagent was admixed. The plates were sealed and after an incubation period of 30 min, the luminescence signal was measured in an Envision reader. All incubation steps were accomplished at room temperature.
Each assay microtiter plate contained wells with vehicle controls instead of compound (0.1% DMSO in water) as reference for the low signal (100% CTL, low signal), and wells with serial dilutions of AMP (final 30 μM) as reference for high signals.
The luminescence signal generated was proportional to the ADP concentration produced and was correlated with AMPK activity. The analysis of the data was performed by the calculation of the percentage of ATP consumption of AMPK in the presence of the test compound compared to the consumption of ATP in the presence of AMPK without compound. (RLU(sample)/RLU(low control))*100[RLU=relative luminescence units]
An activator of the AMPK enzyme gave values above 100% CTL.
EC50 values based on dose response curves are calculated with the XIFIT software using the 4 Parameter Logistic Model or Sigmoidal Dose-Response Model.

As usually defined, the EC50 is the concentration giving half of the maximal effect. Consider `CN(C)S(C)(=O)=Nc1cnc(-c2ccc(-c3nc4[nH]c(O[C@@H]5CO[C@H]6[C@@H]5OC[C@H]6O)nc4cc3Cl)cc2)nc1` (stereo partly drawn) [Example 13, N′-{2-[4-(2-{[(3R,3aR,6R,6aR)-6-hydroxy-hexahydrofuro[3,2-b]furan-3-yl]oxy}-6-chloro-3H-imidazo[4,5-b]pyridin-5-yl)phenyl]pyrimidin-5-yl}-N,N-dimethyl-methanesulfonimidamide], for which the response was half-maximal at 30 nM (EC50).

`CN(C)S(C)(=O)=NCc1ccc(-c2ccc(-c3nc4[nH]c(O[C@@H]5CO[C@H]6[C@@H]5OC[C@H]6O)nc4cc3Cl)cc2)cc1` (stereo partly drawn) [Example 20, N′—({4-[4-(2-{[(3R,3aR,6R,6aR)-6-Hydroxy-hexahydrofuro[3,2-b]furan-3-yl]oxy}-6-chloro-3H-imidazo[4,5-b]pyridin-5-yl)phenyl]phenyl}methyl)-N,N-dimethyl-methanesulfonimidamide] returned a half-maximal effective concentration (EC50) of 82 nM.
